Results from patent EP4813464A2, “PEPTIDE FOR PREVENTING AND TREATING FIBROSIS” (priority 2021, dated 2022).

Tests used:
[1] = type: in vivo, C57BL/6J mice; conditions: bleomycin mice, treatment from day 7, day 0 to day 22; peptides 30 mg/kg subcutaneously three times a week, nintedanib 100 mg/kg orally daily; FIG. 8b
Excerpt: Based on results of measuring the change in body weight from day 0 to day 22, the body weight decreased until day 7 after administration of bleomycin, but increased after treatment with the peptide according to the present invention and nintedanib (FIG. 8b), and weight loss due to toxicity of the peptide according to the present invention and nintedanib was not observed.

[2] = test system: animal model in which lung disease was induced with bleomycin; experiment: Bleomycin-induced lung disease model, lung histology; type: in vivo, C57BL/6J mice; conditions: day 22; peptides 30 mg/kg subcutaneously three times a week, nintedanib 100 mg/kg orally daily; peptides compared to NT group and nintedanib group; FIG. 8c
Procedure: C57BL/6J mice (male, 7 weeks old) were purchased from Charles River. Mice were anesthetized by intraperitoneal administration of a mixture of Imalgene (ketamine, 100 mg/kg)/Rompun (xylazine, 20 mg/kg), and a total of 50 µl of bleomycin sulfate (1.45 mg/kg, MBcell, CA, USA) was injected intratracheally once, and saline was injected intratracheally in the normal group (day 0). On day 7, mice were divided into groups, each consisting of eight. PBS (NT), SEQ ID NO: 1 (30 mg/kg), and SEQ ID NO: 2 (30 mg/kg) were administered subcutaneously three times a week, and nintedanib (Fluorochem Ref = 050741, 100 mg/kg) was administered orally daily. Each of the peptides of SEQ ID NO: 1 and SEQ ID NO: 2 was administered after dissolution in water for injection, and nintedanib was administered after mixing with water containing 0.5% hydroxyethylcellulose (Sigma; lot BCBV5033) and 0.01% Tween 80 (Sigma; lot BCBR6211V). While administering the drug for 21 days, body weight was measured every 2 days, and whether there were other clinical symptoms were checked.
After mice were sacrificed with isoflurane on day 22, lung tissue was excised therefrom and histological analysis was performed. […]
In order to quantify the fibrotic change, the area of the red (fibrotic portion) was quantified in the sample stained with Sirius Red.

COC(=O)c1ccc2c(c1)NC(=O)/C2=C(\Nc1ccc(N(C)C(=O)CN2CCN(C)CC2)cc1)c1ccccc1 [nintedanib]
change in body weight [1]: increased
fibrous deposition in the lungs (Sirius Red and hematoxylin/phloxine staining, microscopy) [2]: some therapeutic effect, but a lot of deposited fibrous tissue was still observed
